The results in this text go back to patent publication US10076519B2 (CYTOKINETICS, INC., priority 2010, dated 2018).

The structures appear in SMILES notation.

For one test, the system named is rabbit skeletal myofibrils (fast skeletal myofibrils). Kind of test: Activation of fast skeletal myofibrils (PUMA assay, PK/LDH-coupled ATPase at pCa25). Format: biochemical. As to conditions: AC1.4 determined according to the procedure of Example 39; reported as class symbols. In outline: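 ATPase activity of Triton-washed rabbit skeletal myofibrils, roughly 90% fast fibres, tracked by NADH loss at 340 nm through a PK/LDH-coupled ADP-regenerating system. Calcium set to 25% of maximal activity (pCa25), in PIPES 12 mM pH 6.8 with 2 mM MgCl2 and 1 mM DTT; AC1.4 reported.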
In the case of `CC(C)(CNc1ccc(-c2ccc3[nH]cnc3c2)nn1)c1ccc(F)cc1` [(6-benzimidazol-5-ylpyridazin-3-yl)[2-(4-fluorophenyl)-2-methylpropyl]amine], the “Mean AC1.4” value is “A (A=<1 uM)”. As for `N#Cc1cncc(-c2ccc(NCC3(c4ccc(F)cc4)CC3)nn2)c1` [5-[6-({[(4-fluorophenyl)cyclopropyl]meth-yl}amino)pyridazin-3-yl]pyridine-3-carbonitrile], the “Mean AC1.4” value is listed as “B (B=1-10 uM)”. On the same count and under the same terms, next, `CN(C)Cc1ccc(C(C)(C)CNc2ccc(-c3ccc4[nH]nc(N)c4c3)nn2)cc1`: “D (D=>20 uM)”; `CC(C)(CNc1ccc(C(=O)O)nn1)c1ccc(F)cc1` [6-{[2-(4-fluorophenyl)-2-methylpropyl]amino}pyridazine-3-carboxylic acid]: “D (D=>20 uM)”. For the molecule `CC(=O)Nc1nc(-c2ccc(NCC(C)(C)c3ccc(F)cc3)nn2)c[nH]1` [N-[4-(6-{[2-(4-fluorophenyl)-2-methylpropyl]amino}pyridazin-3-yl)imidazol-2-yl]acetamide], the “Mean AC1.4” value is on record as “C (C=10-20 uM)”.

Regarding `Nc1n[nH]c2ccc(-c3ccc(NCC4(c5ccc(F)cc5)CCC4)nn3)cc12` [[6-(3-amino(1H-indazol-5-yl))pyridazin-3-yl]{[(4-fluorophenyl)cyclobutyl]meth-yl}amine], the “Mean AC1.4” value was “A (A=<1 uM)”. Turning to `CCOC(=O)c1cc(-c2ccc(NCC(C)(C)c3ccc(F)cc3)nn2)ccc1F` [ethyl 2-fluoro-5-(6-{[2-(4-fluorophenyl)-2-methylpropyl]amino}pyridazin-3-yl)benzoate], the “Mean AC1.4” value was “B (B=1-10 uM)”. Turning to `COC(=O)Nc1n[nH]c2ccc(-c3ccc(NCC(C)(C)c4ccc(F)cc4)nn3)cc12` [N-[5-(6-{[2-(4-fluorophenyl)-2-methylpropyl]amino}pyridazin-3-yl)(1H-indazol-3-yl)]methoxycarboxamide], the “Mean AC1.4” value is given as “A (A=<1 uM)”. For the molecule `CC(C)(Cc1ccc(F)cc1)Nc1ccc(-c2ccc3[nH]c(=O)[nH]c3c2)nn1`, the “Mean AC1.4” value is on record as “D (D=>20 uM)”. `Cn1ncc2ccc(-c3ccc(NCC(C)(C)c4ccc(F)cc4)nn3)cc21` [[2-(4-fluorophenyl)-2-methylpropyl][6-(1-methyl(1H-indazol-6-yl))pyridazin-3-yl]amine]: the “Mean AC1.4” value was “B (B=1-10 uM)”. For `CC(C)(CNc1ccc(C(=O)N2CCCC(C(N)=O)C2)nn1)c1ccc(F)cc1` (stereo not drawn) [1-[(6-{[2-(4-fluorophenyl)-2-methylpropyl]amino}pyridazin-3-yl)carbonyl]piperidine-3-carboxamide], the “Mean AC1.4” value is reported as “D (D=>20 uM)”.

Turning to `CC(C)(CNc1ccc(C(=O)Nc2ccn[nH]2)nn1)c1ccc(F)cc1` [(6-{[2-(4-fluorophenyl)-2-methylpropyl]amino}pyridazin-3-yl)-N-pyrazol-5-ylcarboxamide], the “Mean AC1.4” value was “D (D=>20 uM)”.

Staying with this test, now noted: median AC1.4 class, procedure of Example 39.
For the molecule `N#Cc1cc(-c2ccc(NC3(c4ccc(F)cc4)CCC3)nn2)ccn1`, the “Mean AC1.4” value is on record as “B (B=1-10 uM)”.

In the case of `O=C(O)c1cccc(-c2ccc(NC[C@]3(c4ncccc4F)C[C@H](F)C3)nn2)c1` [3-[6-({[3-fluoro-1-(3-fluoro(2-pyridyl))cyclobutyl]methyl}ami-no)pyridazin-3-yl]benzoic acid], the “Mean AC1.4” value is “A (A=<1 uM)”. `N#Cc1ccnc(C2(Nc3ccc(-c4cc(C(N)=O)ccc4F)nn3)CCC2)c1`: the “Mean AC1.4” value is reported as “D (D=>20 uM)”. Turning to `CC1(Nc2ccc(-c3cc(C(N)=O)ccc3F)nn2)CCC1`, the “Mean AC1.4” value is “D (D=>20 uM)”. Regarding `NC(=O)Nc1n[nH]c2ccc(-c3ccc(NCC4(c5ncccc5F)CCC4)nn3)cc12`, the “Mean AC1.4” value was “A (A=<1 uM)”. Regarding `CS(=O)(=O)Nc1cccc(-c2ccc(NC3(c4ncccc4F)CCC3)nn2)c1`, the “Mean AC1.4” value is on record as “B (B=1-10 uM)”. On the same count and under the same terms, next, `O=C(NCc1cnc(-c2ccc(NCC3(c4ncccc4F)CCC3)nn2)s1)c1cnc(O)[nH]1` [N-({2-[6-({[(3-fluoro(2-pyridyl))cyclobutyl]methyl}ami-no)pyridazin-3-yl](1,3-thiazol-5-yl)}methyl)(2-hydroxyimidazol-5-yl)carboxamide]: “A (A=<1 uM)”; `NC(=O)c1ncc(-c2ccc(NCC3(c4ncccc4F)CCC3)nn2)s1` [5-[6-({[(3-fluoro-2-pyridyl)cyclobutyl]methyl}ami-no)pyridazin-3-yl]-1,3-thiazole-2-carboxamide]: “B (B=1-10 uM)”. Regarding `N#C/N=C(/N)c1cnc(-c2ccc(NCC3(c4ncccc4F)CCC3)nn2)s1` [(2E)-3-amino-3-{2-[6-({[(3-fluoro(2-pyridyl))cyclobutyl]methyl}ami-no)pyridazin-3-yl](1,3-thiazol-5-yl)}-2-azaprop-2-enenitrile], the “Mean AC1.4” value is given as “B (B=1-10 uM)”. As for `COc1ncccc1-c1ccc(NC2(c3ccc(F)cc3)CCC2)nn1` [[(4-fluorophenyl)cyclobutyl][6-(2-methoxy(3-pyridyl))pyridazin-3-yl]amine], the “Mean AC1.4” value was “A (A=<1 uM)”. Take `NC(=O)Cn1nnc(-c2ccc(NCC3(c4ncccc4F)CCC3)nn2)n1` [2-{5-[6-({[(3-fluoro-2-pyridyl)cyclobutyl]methyl}ami-no)pyridazin-3-yl]-1,2,3,4-tetraazol-2-yl}acetamide]: the “Mean AC1.4” value was “D (D=>20 uM)”. Take `NCCNC(=O)c1cnc(-c2ccc(NCC3(c4ncccc4F)CCC3)nn2)s1` [N-(2-aminoethyl){2-[6-({[(3-fluoro(2-pyridyl))cyclobutyl]methyl}ami-no)pyridazin-3-yl](1,3-thiazol-5-yl)}carboxamide]: the “Mean AC1.4” value is “A (A=<1 uM)”. In the case of `O=CN1CC(F)(F)C[C@H]1C(=O)NCc1cnc(-c2ccc(NCC3(c4ncccc4F)CCC3)nn2)s1` [((2S)-4,4-difluoro-1-formylpyrrolidin-2-yl)-N-({2-[6-({[(3-fluoro(2-pyridyl))cyclobutyl]methyl}ami-no)pyridazin-3-yl](1,3-thiazol-5-yl)}methyl)carboxamide], the “Mean AC1.4” value is “A (A=<1 uM)”. Take `NC(=O)CNC(=O)c1ccc(NCC2(c3ncccc3F)CCC2)nn1` [N-(carbamoylmethyl)[6-({[(3-fluoro(2-pyridyl))cyclobutyl]methyl}ami-no)pyridazin-3-yl]carboxamide]: the “Mean AC1.4” value is “D (D=>20 uM)”. `N#Cc1ccc(F)c(-c2ccc(NC3(c4ncccc4F)CCC3)nn2)c1`: the “Mean AC1.4” value is “B (B=1-10 uM)”. Same read-out and setting: next, `CCOC(=O)/C=C/c1ccc(NC2(c3ncccc3F)CCC2)nn1`: “D (D=>20 uM)”; `CCOC(=O)C(C(=O)OCC)c1ccc(NCC2(c3ncccc3F)CCC2)nn1`: “D (D=>20 uM)”; `Fc1ccc(C2(Nc3ccc(-c4ccncc4F)nn3)CCC2)cc1` [[6-(3-fluoro(4-pyridyl))pyridazin-3-yl][(4-fluorophenyl)cyclobutyl]amine]: “B (B=1-10 uM)”. On the same count and under the same terms, next, `COc1cccc(C2(Nc3ccc(-c4cccc(NS(C)(=O)=O)c4)nn3)CCC2)n1`: “B (B=1-10 uM)”; `CCOC(=O)c1nc(-c2cc(Cl)c(NCC3(c4ncccc4F)CCC3)nn2)sc1Cl` [ethyl 5-chloro-2-[5-chloro-6-({[(3-fluoro(2-pyridyl))cyclobutyl]methyl}ami-no)pyridazin-3-yl]-1,3-thiazole-4-carboxylate]: “D (D=>20 uM)”. As to `CC(C)(Nc1ccc(-c2cccc(C#N)c2)nn1)c1ccccc1` [3-{6-[(1-methyl-1-phenylethyl)amino]pyridazin-3-yl}benzenecarbonitrile], the “Mean AC1.4” value was “B (B=1-10 uM)”. Same read-out and setting: next, `NC(=O)c1cccc(-c2ccc(NC3(c4cccc(OC(F)F)n4)CCC3)nn2)c1`: “A (A=<1 uM)”; `CC(C)(C)OC(=O)N1CC(F)(F)CC1C(=O)NCc1cnc(-c2ccc(NCC3(c4ncccc4F)CCC3)nn2)s1` [tert-butyl (2S)-4,4-difluoro-2-[N-({2-[6-({[(3-fluoro(2-pyridyl))cyclobutyl]methyl}ami-no)pyridazin-3-yl](1,3-thiazol-5-yl)}methyl)carbamoyl]pyrrolidine-carboxylate]: “B (B=1-10 uM)”.

The test is the same for the next values; noted with them: median AC1.4 reported as class; procedure of Example 39.
For the molecule `CC(=O)NCc1nc(-c2ccc(NCC3(c4ncccc4F)CCC3)nn2)cs1` [N-({4-[6-({[(3-fluoro-2-pyridyl)cyclobutyl]methyl}ami-no)pyridazin-3-yl]-1,3-thiazol-2-yl}methyl)acetamide], the “Mean AC1.4” value was “D (D=>20 uM)”. Still for that read-out and setting: with `CN1CC(NC(=O)c2ccc(F)c(-c3ccc(NC[C@]4(c5ncccc5F)C[C@H](F)C4)nn3)c2)C1` [{4-fluoro-3-[6-({[3-fluoro-1-(3-fluoro(2-pyridyl))cyclobutyl]methyl}ami-no)pyridazin-3-yl]phenyl}-N-(1-methylazetidin-3-yl)carboxamide] the entry was “B (B=1-10 uM)”; with `O=C(O)c1cc(-c2ccc(NC[C@]3(c4ncccc4F)C[C@H](F)C3)nn2)ccc1O` [5-[6-({[3-fluoro-1-(3-fluoro(2-pyridyl))cyclobutyl]methyl}ami-no)pyridazin-3-yl]-2-hydroxybenzoic acid], “B (B=1-10 uM)”.

Turning to `Cc1cc(-c2ccc(NC[C@]3(c4ncccc4F)C[C@H](F)C3)nn2)cnc1N` [[6-(6-amino-5-methyl(3-pyridyl))pyridazin-3-yl]{[3-fluoro-1-(3-fluoro(2-pyridyl))cyclobutyl]methyl}amine], the “Mean AC1.4” value was “B (B=1-10 uM)”.

Take `Fc1cccnc1C1(CNc2ccc(Cc3ccccc3)nn2)CCC1` [{[(3-fluoro(2-pyridyl))cyclobutyl]methyl}[6-benzylpyridazin-3-yl]amine]: the “Mean AC1.4” value was “D (D=>20 uM)”. For `CN(C)C(=O)c1ccc(F)c(-c2ccc(NC[C@]3(c4ncccc4F)C[C@H](F)C3)nn2)c1` [{4-fluoro-3-[6-({[3-fluoro-1-(3-fluoro(2-pyridyl))cyclobutyl]methyl}ami-no)pyridazin-3-yl]phenyl}-N,N-dimethylcarboxamide], the “Mean AC1.4” value is reported as “B (B=1-10 uM)”. Same read-out and setting: next, `Cc1c(-c2ccc(NCC3(c4ncccc4F)CCC3)nn2)[nH][nH]c1=O` [3-[6-({[(3-fluoro(2-pyridyl))cyclobutyl]methyl}ami-no)pyridazin-3-yl]-4-methyl-3-pyrazolin-5-one]: “D (D=>20 uM)”.
